What was measured:
CDK4/Cyclin D3 = CDK4/Cyclin D3 (Homo sapiens, UniProt P11802); test: Inhibition of recombinant human full length N-terminal GST-tagged CDK4/Cyclin-D3 co-expressed in baculovirus infected sf21 cells using Rb substrate in presence of [gamma33P]ATP after 10 mins by scintillation counting method
Histone deacetylase 1 [1] = target: T1, Histone deacetylase 1 (Homo sapiens, UniProt Q13547); test: Inhibition of HDAC1 (unknown origin)
Histone deacetylase 1 [2] = target: T1, Histone deacetylase 1; test: Potency index, ratio of vorinostat IC50 to compound IC50 for HDAC1 (unknown origin)

T1 sequence (Q13547 whole entry): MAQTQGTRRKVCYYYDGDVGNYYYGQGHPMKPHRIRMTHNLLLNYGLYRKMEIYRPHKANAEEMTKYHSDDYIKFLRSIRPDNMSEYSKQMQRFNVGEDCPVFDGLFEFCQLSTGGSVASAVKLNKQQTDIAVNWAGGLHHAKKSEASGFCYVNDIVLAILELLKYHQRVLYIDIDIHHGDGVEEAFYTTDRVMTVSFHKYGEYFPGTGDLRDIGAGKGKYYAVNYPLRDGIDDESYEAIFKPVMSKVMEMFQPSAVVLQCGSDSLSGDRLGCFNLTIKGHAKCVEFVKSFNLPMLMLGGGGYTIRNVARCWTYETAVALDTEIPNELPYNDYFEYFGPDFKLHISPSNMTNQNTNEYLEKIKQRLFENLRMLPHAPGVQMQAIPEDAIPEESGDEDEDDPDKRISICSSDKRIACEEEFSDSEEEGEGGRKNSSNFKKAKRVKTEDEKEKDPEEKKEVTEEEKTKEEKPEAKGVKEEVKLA
CDK4/Cyclin D3, sequence (P11802 whole entry): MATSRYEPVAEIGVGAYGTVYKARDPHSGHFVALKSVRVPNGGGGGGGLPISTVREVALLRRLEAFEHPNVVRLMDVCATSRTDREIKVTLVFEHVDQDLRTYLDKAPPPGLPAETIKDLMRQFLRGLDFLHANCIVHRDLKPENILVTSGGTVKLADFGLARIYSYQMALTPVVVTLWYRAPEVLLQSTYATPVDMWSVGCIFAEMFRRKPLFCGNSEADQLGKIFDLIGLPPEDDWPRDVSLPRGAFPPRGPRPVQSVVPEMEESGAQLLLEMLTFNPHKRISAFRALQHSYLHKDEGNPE
CDK4/Cyclin D3, sequence (P30281 whole entry, further chain): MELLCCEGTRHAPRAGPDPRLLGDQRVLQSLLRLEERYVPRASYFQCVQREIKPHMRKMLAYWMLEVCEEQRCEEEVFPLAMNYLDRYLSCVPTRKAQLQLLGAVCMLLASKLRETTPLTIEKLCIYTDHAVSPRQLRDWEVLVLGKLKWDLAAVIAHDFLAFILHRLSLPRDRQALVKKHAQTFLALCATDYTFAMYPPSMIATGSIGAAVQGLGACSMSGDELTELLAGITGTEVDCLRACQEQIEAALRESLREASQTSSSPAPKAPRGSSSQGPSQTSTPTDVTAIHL

Structure (SMILES)	IC50 (CDK4/Cyclin D3)	IC50 (Histone deacetylase 1 [1])	Ratio IC50 (Histone deacetylase 1 [2])
COC(=O)CCCCCCC(=O)NNc1ncc2cc(C(=O)N(C)C)n(C3CCCC3)c2n1	> 5000 nM	–	–
COC(=O)CCCCCNC(=O)Nc1ccc(Nc2ncc3cc(C(=O)N(C)C)n(C4CCCC4)c3n2)cc1	23 nM	–	–
CN(C)C(=O)c1cc2cnc(Nc3ccc(C(=O)NCCCCCCC(=O)NO)cc3)nc2n1C1CCCC1	12 nM	1.4 nM	10 to 100
COC(=O)CCCCCCCNC(=O)c1ccc(Nc2ncc3cc(C(=O)N(C)C)n(C4CCCC4)c3n2)cc1	8.2 nM	–	–
CN(C)C(=O)c1cc2cnc(Nc3ccc(N4CCN(C(=O)CCCCCCC(=O)NO)CC4)cn3)nc2n1C1CCCC1	13 nM	39 nM	10 to 100
O=C(CCCCCCC(=O)Nc1ccc(Nc2ncc3ncn(C4CCCC4)c3n2)cc1)NO	> 5000 nM	2.6 nM	10 to 100
CN(C)C(=O)c1cc2cnc(Nc3cccc(NC(=O)CCCCCCC(=O)NO)c3)nc2n1C1CCCC1	30 nM	0.84 nM	10 to 100
CN(C)C(=O)c1cc2cnc(Nc3ccc(NC(=O)CCCCCC(=O)NO)cc3)nc2n1C1CCCC1	10 nM	0.84 nM	10 to 100
COC(=O)CCCCCCC(=O)Nc1cccc(Nc2ncc3cc(C(=O)N(C)C)n(C4CCCC4)c3n2)c1	26 nM	–	–
COC(=O)CCCCCNC(=O)c1ccc(Nc2ncc3cc(C(=O)N(C)C)n(C4CCCC4)c3n2)cc1	7.3 nM	–	–
COC(=O)CCCCCCC(=O)NCc1ccc(Nc2ncc3cc(C(=O)N(C)C)n(C4CCCC4)c3n2)cc1	25 nM	–	–
COC(=O)CCCCCCC(=O)Nc1ccc(Nc2ncc3nnn(C4CCCC4)c3n2)cc1	857 nM	> 5000 nM	10 to 100
CN(C)C(=O)c1cc2cnc(Nc3ccc(NC(=O)CCCCCCCO)cc3)nc2n1C1CCCC1	10 nM	> 5000 nM	10 to 100
COC(=O)CCCCCCC(=O)Nc1ncc2cc(C(=O)N(C)C)n(C3CCCC3)c2n1	> 5000 nM	–	–
CN(C)C(=O)c1cc2cnc(Nc3ccc(CNC(=O)CCCCCCC(=O)NO)cc3)nc2n1C1CCCC1	10 nM	53 nM	10 to 100
CCCCCCCCC(=O)Nc1ccc(Nc2ncc3cc(C(=O)N(C)C)n(C4CCCC4)c3n2)cc1	123 nM	–	–
CN(C)C(=O)c1cc2cnc(Nc3ccc(NC(=O)CCCCCCC(=O)NO)cn3)nc2n1C1CCCC1	93 nM	423 nM	10 to 100
COC(=O)CCCCCCC(=O)Nc1ccc(Nc2ncc3cc(C(=O)N(C)C)n(C4CCCC4)c3n2)cn1	16 nM	–	–
CN(C)C(=O)CCCCCCC(=O)Nc1ccc(Nc2ncc3cc(C(=O)N(C)C)n(C4CCCC4)c3n2)cc1	16 nM	> 5000 nM	10 to 100
COC(=O)CCCCCC(=O)Nc1ccc(Nc2ncc3cc(C(=O)N(C)C)n(C4CCCC4)c3n2)cc1	10 nM	–	–
CCCCCC(=O)Nc1ccc(Nc2ncc3cc(C(=O)N(C)C)n(C4CCCC4)c3n2)cc1	10 nM	> 5000 nM	10 to 100
